Consider 23 compounds from ChEMBL document CHEMBL1759842, “Discovery of non-glucoside SGLT2 inhibitors” (Bioorg Med Chem Lett, 2011).

The target in series [1] is T1, Sodium/glucose cotransporter 2 (Homo sapiens, UniProt P31639).
T1 sequence (P31639 whole entry): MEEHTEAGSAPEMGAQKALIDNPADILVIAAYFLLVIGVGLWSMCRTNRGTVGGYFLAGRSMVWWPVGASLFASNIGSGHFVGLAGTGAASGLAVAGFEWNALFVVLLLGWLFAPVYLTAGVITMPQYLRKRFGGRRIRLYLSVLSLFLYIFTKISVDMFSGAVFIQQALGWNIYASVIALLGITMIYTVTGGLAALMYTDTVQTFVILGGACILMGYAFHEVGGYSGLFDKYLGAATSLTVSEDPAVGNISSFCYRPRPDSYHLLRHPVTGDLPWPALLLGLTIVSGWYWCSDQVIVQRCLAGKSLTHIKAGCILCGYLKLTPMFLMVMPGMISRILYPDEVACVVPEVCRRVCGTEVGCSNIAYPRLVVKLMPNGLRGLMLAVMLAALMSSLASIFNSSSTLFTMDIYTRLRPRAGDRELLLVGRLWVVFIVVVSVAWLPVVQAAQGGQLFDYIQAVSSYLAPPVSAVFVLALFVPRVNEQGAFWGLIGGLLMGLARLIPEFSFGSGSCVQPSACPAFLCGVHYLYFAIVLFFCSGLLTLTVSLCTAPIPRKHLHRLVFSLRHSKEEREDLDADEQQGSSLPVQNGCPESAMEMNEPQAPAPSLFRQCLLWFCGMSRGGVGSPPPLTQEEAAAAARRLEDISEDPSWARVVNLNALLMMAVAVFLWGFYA
Nature of the series: Inhibition of human SGLT2 expressed in CHO cells assessed as inhibition of [14C]-alpha-methyl-D-glucopyranoside transport after 60 mins by scintillation counting. Format: cell-based.

The target in series [2] is T2, Sodium/glucose cotransporter 1 (Homo sapiens, UniProt P13866).
T2 sequence (P13866 whole entry): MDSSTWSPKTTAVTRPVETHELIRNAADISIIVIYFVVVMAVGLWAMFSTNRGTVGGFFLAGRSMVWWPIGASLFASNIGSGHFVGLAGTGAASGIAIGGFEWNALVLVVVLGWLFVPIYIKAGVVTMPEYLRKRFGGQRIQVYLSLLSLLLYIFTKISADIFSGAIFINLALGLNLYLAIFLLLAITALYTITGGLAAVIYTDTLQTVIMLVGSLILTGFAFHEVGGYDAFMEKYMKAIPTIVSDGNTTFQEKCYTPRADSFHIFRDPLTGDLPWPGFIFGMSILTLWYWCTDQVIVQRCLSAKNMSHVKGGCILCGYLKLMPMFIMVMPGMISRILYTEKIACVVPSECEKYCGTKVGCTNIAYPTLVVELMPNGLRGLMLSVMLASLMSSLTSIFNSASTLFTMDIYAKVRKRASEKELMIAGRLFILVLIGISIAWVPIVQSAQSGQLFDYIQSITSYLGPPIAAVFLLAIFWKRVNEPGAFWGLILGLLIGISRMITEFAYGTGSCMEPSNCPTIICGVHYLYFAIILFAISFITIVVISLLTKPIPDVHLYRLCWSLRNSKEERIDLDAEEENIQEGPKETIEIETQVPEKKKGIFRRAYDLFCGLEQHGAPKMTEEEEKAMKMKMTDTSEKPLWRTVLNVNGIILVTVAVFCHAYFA
Put plainly: Inhibition of human SGLT1 expressed in CHO cells assessed as inhibition of [14C]-alpha-methyl-D-glucopyranoside transport after 60 mins by scintillation counting. Format: cell-based.

The nature of series [3]: Metabolic stability in rat liver microsomes assessed as compound remaining after 30 mins. Format: ADME, Microsome. The following applies: read-out: Stability. In general terms: Liver microsomes are vesicles of endoplasmic reticulum, rich in cytochrome P450 enzymes.
Series [4] can be described thus: Metabolic stability in human liver microsomes assessed as compound remaining after 30 mins. It counts as ADME, Microsome. As to conditions: read-out: Stability.
The target in series [5] is T1, Sodium/glucose cotransporter 2. Nature of the series: Displacement of [3H]dapagliflozin from human SGLT2 expressed in CHO cells after 60 mins by scintillation counting. Format: cell-based. Background: In a radioligand displacement assay an active substance lowers the binding of a labelled ligand.
For series [6] the target is unchanged. Put plainly: Inhibition of human SGLT2 expressed in CHO cells assessed as inhibition of [14C]-alpha-methyl-D-glucopyranoside transport after 60 mins by scintillation counting in presence of 100% plasma. It counts as cell-based.
For series [7], the target named is T3, Sodium/myo-inositol cotransporter 2 (Homo sapiens, UniProt Q8WWX8).
T3 sequence (Q8WWX8 whole entry): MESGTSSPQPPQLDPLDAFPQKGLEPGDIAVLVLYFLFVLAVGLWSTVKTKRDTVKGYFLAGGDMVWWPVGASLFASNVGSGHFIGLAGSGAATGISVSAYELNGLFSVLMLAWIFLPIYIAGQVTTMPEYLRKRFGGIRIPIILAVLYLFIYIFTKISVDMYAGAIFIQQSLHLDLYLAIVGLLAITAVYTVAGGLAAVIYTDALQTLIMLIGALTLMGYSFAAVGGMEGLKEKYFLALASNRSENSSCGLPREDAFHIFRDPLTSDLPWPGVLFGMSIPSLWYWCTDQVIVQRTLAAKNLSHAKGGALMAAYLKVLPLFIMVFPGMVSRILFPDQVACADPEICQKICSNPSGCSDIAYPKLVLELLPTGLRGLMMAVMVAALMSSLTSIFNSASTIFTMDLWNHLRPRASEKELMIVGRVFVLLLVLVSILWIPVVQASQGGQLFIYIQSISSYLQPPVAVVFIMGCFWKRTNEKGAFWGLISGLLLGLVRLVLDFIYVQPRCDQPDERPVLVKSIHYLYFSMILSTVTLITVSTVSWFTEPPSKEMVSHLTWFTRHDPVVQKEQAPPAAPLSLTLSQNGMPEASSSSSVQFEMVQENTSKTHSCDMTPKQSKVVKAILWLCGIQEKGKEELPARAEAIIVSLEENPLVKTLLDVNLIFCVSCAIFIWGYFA
Put plainly: Inhibition of SGLT6 expressed in CHO cells assessed as inhibition of [14C]-alpha-methyl-D-glucopyranoside transport after 60 mins by scintillation counting. It counts as cell-based.

Regarding `CCn1c(CN2C(=O)CSc3ccc(C(F)(F)F)cc32)nnc1SCc1ccc(Cl)cc1`, the IC50 in series [1] is 0.37 µM; in series [2] it was 4.75 µM.
In the case of `CC(C)n1c(CN2C(=O)CSc3ccc(C(F)(F)F)cc32)nnc1SCc1ccc(Cl)cc1`, the IC50 was 1.2 µM in series [1] and 2 µM in series [2].
The matching figures for `O=C1CSc2ccc(C(F)(F)F)cc2N1Cc1nnc(SCc2ccc(Cl)cc2)n1C1CC1`: 1.1 µM and 3.75 µM.
The matching figures for `O=C1CSc2ccc(C(F)(F)F)cc2N1Cc1nnc(SCc2ccc(Cl)cc2)n1-c1ccccc1`: 2.11 µM and 3.47 µM.
Turning to `CCn1c(CN2C(=O)COc3ccc(C(F)(F)F)cc32)nnc1SCc1ccc(Cl)cc1`, the IC50 was 0.25 µM in series [1] and 6.64 µM in series [2].
The matching figures for `CCn1c(CN2C(=O)COc3ccc([N+](=O)[O-])cc32)nnc1SCc1ccc(Cl)cc1`: 2.1 µM and 5.61 µM.
As to `CCn1c(CN2C(=O)COc3ccc(Br)cc32)nnc1SCc1ccc(Cl)cc1`, the IC50 in series [1] was determined as 0.09 µM; in series [2], 5.32 µM.
`CCn1c(CN2C(=O)COc3ccc(Cl)cc32)nnc1SCc1ccc(Cl)cc1`: the IC50 is 0.15 µM in series [1] and 7.34 µM in series [2].
As to `CCn1c(CN2C(=O)COc3ccc(C)cc32)nnc1SCc1ccc(Cl)cc1`, the IC50 amounted to 0.08 µM in series [1] and 7.13 µM in series [2].
The matching figures for `CCn1c(CN2C(=O)COc3cc(Cl)ccc32)nnc1SCc1ccc(Cl)cc1`: 0.43 µM and 3.29 µM.
The matching figures for `CCn1c(CN2C(=O)COc3cc(Br)ccc32)nnc1SCc1ccc(Cl)cc1`: 0.52 µM and 2.53 µM.
As for `CCn1c(CN2C(=O)COc3c(Cl)cccc32)nnc1SCc1ccc(Cl)cc1`, the IC50 stood at 0.15 µM in series [1] and 7.34 µM in series [2].
The matching figures for `CCn1c(CCc2ccc(Cl)cc2)nnc1CN1C(=O)COc2ccc(C(F)(F)F)cc21`: 0.64 µM and 46 µM.
The matching figures for `CCCn1c(CCc2ccc(Cl)cc2)nnc1CN1C(=O)COc2ccc(C(F)(F)F)cc21`: 0.18 µM and 9.88 µM.
The matching figures for `CCCn1c(CCc2ccc(Cl)cc2)nnc1CN1C(=O)COc2ccc(Cl)cc21`: 0.04 µM and 13.6 µM.
Regarding `CCCCn1c(CCc2ccc(Cl)cc2)nnc1CN1C(=O)COc2ccc(Cl)cc21`, the IC50 in series [1] came out at 0.03 µM; in series [2], 11.8 µM.
The matching figures for `O=C1COc2ccc(Cl)cc2N1Cc1nnc(CCc2ccc(Cl)cc2)n1CC1CC1`: 0.03 µM and 7.28 µM.
Regarding `CC(C)Cn1c(CCc2ccc(Cl)cc2)nnc1CN1C(=O)COc2ccc(Cl)cc21`, the IC50 in series [1] was 0.16 µM; in series [2], 6.9 µM.
The matching figures for `O=C1COc2ccc(Cl)cc2N1Cc1nnc(CCc2ccc(Cl)cc2)n1CCC(F)(F)F`: 0.07 µM and 13.8 µM.
The matching figures for `O=C1COc2ccc(Cl)cc2N1Cc1nnc(CCc2ccc(Cl)cc2)n1C1CC1`: 1.58 µM and 25 µM.
As for `CCCn1c(CCc2ccc(Cl)cc2)nnc1CN1C(=O)COc2c(Cl)cc(Cl)cc21`, the remaining at 0.5 h in series [3] and in series [4] was 4% in each case. Also, the IC50 in series [1] was found to be 0.009 µM; in series [2], 9.14 µM; in series [5], 0.016 µM; in series [6] it was 0.04 µM; in series [7] it was 14.4 µM.
In the case of `O=C1COc2c(Cl)cc(Cl)cc2N1Cc1nnc(CCc2ccc(Cl)cc2)n1CCC(F)(F)F`, the remaining at 0.5 h in series [3] and in series [4] was 4% in each case. Moreover, the IC50 in series [7] is 9.2 µM.
Turning to `CCOc1ccc(Cc2cc([C@@H]3O[C@H](CO)[C@@H](O)[C@H](O)[C@H]3O)ccc2Cl)cc1` [DAPAGLIFLOZIN], the IC50 in series [7] is 0.38 µM.

A word on the IC50: it is the concentration at which inhibition is half-maximal.
